Measured values: patent US8404847B2, “Method for producing diamine derivative” (Daiichi Sankyo Company, Limited, priority 2008, dated 2013)

Legend:
[1] = Solubility of compound A under crystallization conditions with varying amounts of TsOH.H2O (Test Example 1); format: physicochemical; conditions: ethanol having a water content of 10%, 10° C.
Method: The ordinate depicts the solubility (mg/ml) of compound A, and the abscissa depicts the molar equivalent of p-toluenesulfonic acid monohydrate (vs. compound B).
The solubility of compound A was determined using varying amounts of TsOH.H2O under conditions for crystallizing compound A (ethanol having a water content of 10%, 10° C.). Specifically, compound A, compound B, and TsOH.H2O were added in the combinations shown below to 10 ml of ethanol having a water content of 10%. The resulting slurry was stirred at 10° C., and crystals were collected by filtration. Then, the content of the compound A contained in the filtered mother liquor was measured by HPLC (column: Shiseido CAPCELL PAK CN UG120 (4.6×250 mm), column temperature: 40° C., flow rate: 1.0 ml/min., mobile phase: acetonitrile:0.02 M phosphate buffer (pH 7.0)=30:70).

[2] = Stability of compound B under dissolution conditions with varying amounts of TsOH.H2O (Test Example 2); format: physicochemical; conditions: ethanol having a water content of 30%, 70° C.
Method: FIG. 2 depicts time-dependent (hr; abscissa) change in the amount of compound B (%; ordinate) with the initial (0 hr) amount of compound B defined as 100%.
The stability of compound B was determined using varying amounts of TsOH.H2O under conditions for dissolving compound B in a solvent (ethanol having a water content of 30%, 70° C.). Specifically, 7 ml of ethanol having a water content of 30% and TsOH.H2O were added in combinations shown below to 1.0 g of compound B, followed by dissolution at 70° C. The content of the compound B was measured at constant time intervals by HPLC (column: Shiseido CAPCELL PAK CN UG120 (4.6×250 mm), column temperature: 40° C., flow rate: 1.0 ml/min., mobile phase: acetonitrile:0.02 M phosphate buffer (pH 7.0)=30:70).

SMILES | solubility of compound A ([1]; TsOH.H2O larger than 1.00 molar equivalent with respect to compound B) | solubility of compound A ([1]; TsOH.H2O smaller than 1.00 molar equivalent with respect to compound B) | decomposition of compound B (decrease in compound B content) ([2]; TsOH.H2O at less than 1.0 molar equivalent (vs. compound B)) | decomposition of compound B (decrease in compound B content) ([2]; TsOH.H2O at more than 1.0 molar equivalent (vs. compound B))
CN1CCc2nc(C(=O)N[C@@H]3C[C@@H](C(=O)N(C)C)CC[C@@H]3NC(=O)C(=O)Nc3ccc(Cl)cn3)sc2C1.Cc1ccc(S(=O)(=O)O)cc1.O [compound A, N^1-(5-chloropyridin-2-yl)-N^2-((1S,2R,4S)-4-[(dimethylamino)carbonyl]-2-{[(5-methyl-4,5,6,7-tetrahydrothiazolo[5,4-c]pyridin-2-yl)carbonyl]amino}cyclohexyl)ethanediamide p-toluenesulfonic acid monohydrate] | reduced | increased |  | 
CN1CCc2nc(C(=O)N[C@@H]3C[C@@H](C(=O)N(C)C)CC[C@@H]3NC(=O)C(=O)Nc3ccc(Cl)cn3)sc2C1 [compound B, N^1-(5-chloropyridin-2-yl)-N^2-((1S,2R,4S)-4-[(dimethylamino)carbonyl]-2-{[(5-methyl-4,5,6,7-tetrahydrothiazolo[5,4-c]pyridin-2-yl)carbonyl]amino}cyclohexyl)ethanediamide] |  |  | suppressed | promoted with the excess
